Here are results for 7 molecules from PubChem BioAssay AID1919003 (Molecular Pharmacology Branch, DTP, NCI, 2023).

This assay concerns 786-0 complex spheroids with HUVEC/MSC, growth % test/control. Briefly: Anticancer human tumor 786-0 cell line growth inhibition [AhR].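 On all read-outs here: compound exposure lasted seven days before the read-out.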 The settings on record: for viability, T/C: stronger effect = lower value. The essentials:
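Spheroids combined tumor cells with HUVEC endothelial cells and human MSCs as stroma. AhR antagonists were paired with standard or investigational drugs, each dosed in half-log steps down from near clinical Cmax, or from 10 microM where Cmax was unknown.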

The mark [1] stands for this setting: curve of first compound, second compound 0.1 µM.
[2] abbreviates: curve of first compound, second compound 0.316 µM.
Where [3] appears, read: curve of first compound, second compound 1 µM.
The mark [4] stands for this setting: curve of first compound, second compound 3.16 µM.
[5] abbreviates: curve of first compound, second compound 10 µM.
The mark [6] stands for this setting: second compound 0.1 µM, first compound 0.0316 µM.
Where [7] appears, read: second compound 0.1 µM, first compound 0.1 µM.
Where [8] appears, read: second compound 0.1 µM, first compound 0.316 µM.
Where [9] appears, read: second compound 0.1 µM, first compound 1 µM.
Setting [10] is: second compound 0.1 µM, first compound 3.16 µM.
The mark [11] stands for this setting: second compound 0.1 µM, first compound 10 µM.
Setting [12] is: second compound 0.316 µM, first compound 0.0316 µM.
[13] abbreviates: second compound 0.316 µM, first compound 0.1 µM.
The mark [14] stands for this setting: second compound 0.316 µM, first compound 0.316 µM.
The mark [15] stands for this setting: second compound 0.316 µM, first compound 1 µM.
Where [16] appears, read: second compound 0.316 µM, first compound 3.16 µM.
Where [17] appears, read: second compound 0.316 µM, first compound 10 µM.
Where [18] appears, read: second compound 1 µM, first compound 0.0316 µM.
Where [19] appears, read: second compound 1 µM, first compound 0.1 µM.
[20] abbreviates: second compound 1 µM, first compound 0.316 µM.
Where [21] appears, read: second compound 1 µM, first compound 1 µM.
[22] abbreviates: second compound 1 µM, first compound 3.16 µM.
[23] abbreviates: second compound 1 µM, first compound 10 µM.
The mark [24] stands for this setting: second compound 3.16 µM, first compound 0.0316 µM.
Where [25] appears, read: second compound 3.16 µM, first compound 0.1 µM.
Setting [26] is: second compound 3.16 µM, first compound 0.316 µM.
The mark [27] stands for this setting: second compound 3.16 µM, first compound 1 µM.
[28] abbreviates: second compound 3.16 µM, first compound 3.16 µM.
[29] abbreviates: second compound 3.16 µM, first compound 10 µM.
Where [30] appears, read: second compound 10 µM, first compound 0.0316 µM.
[31] abbreviates: second compound 10 µM, first compound 0.1 µM.
Setting [32] is: second compound 10 µM, first compound 0.316 µM.
[33] abbreviates: second compound 10 µM, first compound 1 µM.
[34] abbreviates: second compound 10 µM, first compound 3.16 µM.
Setting [35] is: second compound 10 µM, first compound 10 µM.

pIC50: −log10 of the molar value. Values joined by “and” are separate entries in the source; they are usually repeats but may differ in a detail not shown here. Equal entries are not always repeated.

For the molecule `O=C(C=Cc1cccc(S(=O)(=O)Nc2ccccc2)c1)NO` + Cc1ccccc1N=Nc1ccc(NC(=O)c2ccnn2C)c(C)c1, the pIC50 under setting [1] is 5.22; the pIC50 under setting [2] was 5.22; the pIC50 under setting [3] was 5.20; the pIC50 under setting [4] is 5.24; the pIC50 under setting [5] is 5.34. For the same molecule, the viability, T/C is, setting by setting: under setting [6], 89.2%; under setting [7], 103%; under setting [8], 88.4%; under setting [9], 94.3%; under setting [10], 87.7%; under setting [11], 20.9%. Besides, the viability, T/C is, setting by setting: under setting [12], 100%; under setting [13], 97.1%; under setting [14], 101%; under setting [15], 101%; under setting [16], 86.4%; under setting [17], 22.1%. Further, the viability, T/C is 98.2% under setting [18]; 100% under setting [19]; 106% under setting [20]; 93.5% under setting [21]; 90.7% under setting [22]; 22.5% under setting [23]. Moreover, the viability, T/C is, setting by setting: under setting [24], 85%; under setting [25], 91.4%; under setting [26], 85.8%; under setting [27], 81.9%; under setting [28], 80%; under setting [29], 21.4%. Moreover, the viability, T/C by setting is: under setting [30], 93.5%; under setting [31], 87.2%; under setting [32], 85.9%; under setting [33], 85.5%; under setting [34], 67.3%; under setting [35], 14.2%.
Take `Nc1ccn(C2OC(CO)C(O)C2(F)F)c(=O)n1` (stereo unspecified) + CC(CO)NC(=O)c1cc(-c2ccc(Cl)cc2)nn(-c2cnn(C)c2)c1=O: the pIC50 by setting is: under setting [1], over 7.50; under setting [2], over 7.50; under setting [3], over 7.50; under setting [4], over 7.50; under setting [5], over 7.50. Besides, the viability, T/C was 4.79% under setting [6]; 4.46% under setting [7]; 2.56% under setting [8]; 4.39% under setting [9]; 3.18% under setting [10]; 4.27% under setting [11]. In addition, the viability, T/C was 5.24% under setting [12]; 4.16% under setting [13]; 4.42% under setting [14]; 3.7% under setting [15]; 4.85% under setting [16]; 6.51% under setting [17]. The viability, T/C is 5.01% under setting [18]; 3.82% under setting [19]; 4.34% under setting [20]; 4.23% under setting [21]; 4.33% under setting [22]; 4.11% under setting [23]. Moreover, the viability, T/C is 5.21% under setting [24]; 4.49% under setting [25]; 4.44% under setting [26]; 4.62% under setting [27]; 4.8% under setting [28]; 5.89% under setting [29]. For the same molecule, the viability, T/C was 4.43% under setting [30]; 3.72% under setting [31]; 4.66% under setting [32]; 4.02% under setting [33]; 5.31% under setting [34]; 6.31% under setting [35].
On to `NS(=O)(=O)OCC1CC(n2ccc3c(NC4CCc5ccccc54)ncnc32)CC1O` (stereo unspecified), for which the viability, T/C by setting is: (compound 0.0316 µM) 86.6% and 84.8% and 82.7%; (compound 0.1 µM) 82.9% and 78.3% and 70.6%; (compound 0.316 µM) 65.9% and 65% and 60.3%; (compound 1 µM) 28.2% and 41.9% and 20.8%; (compound 3.16 µM) 5.17% and 8.09% and 3.13%; (compound 10 µM) 3.31% and 4.15% and 1.12%. The pIC50 (curve of compound) was 6.29 and 6.20 and 6.39.
In the case of `COc1cc(Nc2ncc3c(n2)-c2ccc(Cl)cc2C(c2c(F)cccc2OC)=NC3)ccc1C(=O)O`, the viability, T/C reads like this: (compound 0.0316 µM) 94.7% and 108% and 91.5%; (compound 0.1 µM) 96% and 110% and 93.9%; (compound 0.316 µM) 98% and 122% and 107%; (compound 1 µM) 78.9% and 92.7% and 79.7%; (compound 3.16 µM) 50.9% and 63.2% and 48.5%; (compound 10 µM) 27.6% and 35% and 28.7%. Where the note is “curve of compound”, the negative logarithm of the IC50 (pIC50) was 5.50 and 5.28 and 5.54.
For the molecule `NS(=O)(=O)OCC1CC(n2ccc3c(NC4CCc5ccccc54)ncnc32)CC1O` (stereo unspecified) + Cc1cncc(-c2nc(NCCc3c[nH]c4ccccc34)c3ncn(C(C)C)c3n2)c1, the pIC50 is 6.19 under setting [1]; 6.19 under setting [2]; 6.24 under setting [3]; 6.51 under setting [4]; over 7.50 under setting [5]. For the same molecule, the viability, T/C is, setting by setting: under setting [6], 96.8%; under setting [7], 84.5%; under setting [8], 74.8%; under setting [9], 35%; under setting [10], 10.5%; under setting [11], 5.21%. For the same molecule, the viability, T/C runs as follows: under setting [12], 100%; under setting [13], 82.9%; under setting [14], 75.8%; under setting [15], 36%; under setting [16], 8.3%; under setting [17], 4.21%. Further, the viability, T/C is, setting by setting: under setting [18], 103%; under setting [19], 83.6%; under setting [20], 74.2%; under setting [21], 30.7%; under setting [22], 8.16%; under setting [23], 5.53%. For the same molecule, the viability, T/C is 71.9% under setting [24]; 66% under setting [25]; 50.1% under setting [26]; 16.5% under setting [27]; 3.65% under setting [28]; 2.28% under setting [29]. Also, the viability, T/C is, setting by setting: under setting [30], 6.13%; under setting [31], 6.79%; under setting [32], 1.4%; under setting [33], 1.01%; under setting [34], 0.49%; under setting [35], 0.45%.
Consider `CC(C)CC(NC(=O)C(Cc1ccccc1)NC(=O)c1cnccn1)B(O)O` (stereo unspecified), for which the viability, T/C by setting is: (compound 0.000949 µM) 100% and 102% and 98.1%; (compound 0.003 µM) 105% and 104% and 116%; (compound 0.00949 µM) 63.4% and 99.9% and 35.7%; (compound 0.03 µM) 3.86% and 13.5% and 0.66%; (compound 0.0949 µM) 0.45% and 1.34% and 0.4%; (compound 0.3 µM) 1.25% and 0.84% and 0.27%. Under “curve of compound”, the pIC50 is 7.91 and 7.74 and 8.12.
Consider `Nc1ncn(C2CC(O)C(CO)O2)c(=O)n1` (stereo unspecified) + CC(CO)NC(=O)c1cc(-c2ccc(Cl)cc2)nn(-c2cnn(C)c2)c1=O, for which the negative logarithm of the IC50 (pIC50) under setting [1] is under 6.00; the pIC50 under setting [2] is under 6.00; the pIC50 under setting [3] is under 6.00; the pIC50 under setting [4] is under 6.00; the pIC50 under setting [5] was under 6.00. Further, the viability, T/C was 96.2% (second compound 0.1 µM, first compound 0.00316 µM); 79.7% (second compound 0.1 µM, first compound 0.01 µM); 72.4% under setting [6]; 75.3% under setting [7]; 75.3% under setting [8]; 62% under setting [9]. Besides, the viability, T/C is 69% (second compound 0.316 µM, first compound 0.00316 µM); 66% (second compound 0.316 µM, first compound 0.01 µM); 75.3% under setting [12]; 62.1% under setting [13]; 57.9% under setting [14]; 55% under setting [15]. Also, the viability, T/C was 82.4% (second compound 1 µM, first compound 0.00316 µM); 109% (second compound 1 µM, first compound 0.01 µM); 88.6% under setting [18]; 72.1% under setting [19]; 65.3% under setting [20]; 61% under setting [21]. The viability, T/C (second compound 3.16 µM, first compound 0.00316 µM) was 108%; the viability, T/C (second compound 3.16 µM, first compound 0.01 µM) is 94.1%; the viability, T/C under setting [24] was 93.8%; the viability, T/C under setting [25] is 91.2%; the viability, T/C under setting [26] was 77.7%; the viability, T/C under setting [27] is 64.3%. Moreover, the viability, T/C (second compound 10 µM, first compound 0.00316 µM) was 116%; the viability, T/C (second compound 10 µM, first compound 0.01 µM) is 121%; the viability, T/C under setting [30] was 122%; the viability, T/C under setting [31] is 117%; the viability, T/C under setting [32] was 109%; the viability, T/C under setting [33] was 73.1%.

By pIC50 is commonly meant the IC50 on a negative log10 scale, so that one unit is a factor of ten. As a reminder, the viability, T/C is the ratio of treated to control.
